Experimental data taken from publication PMC5218480 (PLoS ONE, 2017).

Test system: MV-4-11 cells
Assay: Gene expression microarray analysis (Affymetrix PrimeView) and GSEA
Type: cell-based, human
Set-up: RFU PODN (11730768_x_at) / Fold change /veh PODN (11730768_x_at) / RFU LINC00158 (11744669_a_at) / Fold change /veh LINC00158 (11744669_a_at) / RFU DUSP10 (11751237_a_at) / Fold change /veh DUSP10 (11751237_a_at) / RFU ID3 (11757404_x_at) / Fold change /veh ID3 (11757404_x_at) / RFU PLEKHG5 (11737974_s_at) / Fold change /veh PLEKHG5 (11737974_s_at) / RFU LRRC4B (11730491_at) / Fold change /veh LRRC4B (11730491_at) / RFU GIMAP4 (11747438_a_at) / Fold change /veh GIMAP4 (11747438_a_at) / RFU KRT8 (11758183_x_at) / Fold change /veh KRT8 (11758183_x_at) / RFU CNN1 (11734310_a_at) / Fold change /veh CNN1 (11734310_a_at) / RFU VPS37D (11726825_at) / Fold change /veh VPS37D (11726825_at) / RFU C10orf10 (11716522_x_at) / Fold change /veh C10orf10 (11716522_x_at) / RFU KIR2DL2 /// KIR2DL4 /// KIR2DL5A /// KIR2DL5B /// KIR2DS1 /// KIR2DS2 /// KIR2DS3 /// KIR2DS4 /// KIR3DL3 /// KIR3DL3 /// KIR3DS1 (11738374_at) / Fold change /veh KIR2DL2 /// KIR2DL4 /// KIR2DL5A /// KIR2DL5B /// KIR2DS1 /// KIR2DS2 /// KIR2DS3 /// KIR2DS4 /// KIR3DL3 /// KIR3DL3 /// KIR3DS1 (11738374_at) / RFU C1QL1 (11718748_at) / Fold change /veh C1QL1 (11718748_at) / RFU TMPRSS4 (11747572_a_at) / Fold change /veh TMPRSS4 (11747572_a_at) / RFU HAMP (11756126_x_at) / Fold change /veh HAMP (11756126_x_at) / RFU RNFT2 (11725882_a_at) / Fold change /veh RNFT2 (11725882_a_at) / RFU NR4A2 (11747474_a_at) / Fold change /veh NR4A2 (11747474_a_at) / RFU ABCC12 (11746883_a_at) / Fold change /veh ABCC12 (11746883_a_at) / RFU TMEM136 (11760407_x_at) / Fold change /veh TMEM136 (11760407_x_at) / RFU CLDN22 /// WWC2 (11732394_at) / Fold change /veh CLDN22 /// WWC2 (11732394_at) / RFU HLA-DPB1 (11760878_x_at) / Fold change /veh HLA-DPB1 (11760878_x_at) / RFU SPINT1 (11716480_a_at) / Fold change /veh SPINT1 (11716480_a_at) / RFU GAP43 (11754022_s_at) / Fold change /veh GAP43 (11754022_s_at) / RFU A4GNT (11735810_at) / Fold change /veh A4GNT (11735810_at) / RFU PRB3 (11715151_x_at) / Fold change /veh PRB3 (11715151_x_at) / RFU TUBB4B (11761932_at) / Fold change /veh TUBB4B (11761932_at) / RFU CAPN14 (11732068_a_at) / Fold change /veh CAPN14 (11732068_a_at) / RFU TMCC2 (11721928_a_at) / Fold change /veh TMCC2 (11721928_a_at) / RFU IRGQ (11745062_a_at) / Fold change /veh IRGQ (11745062_a_at) / RFU FAM174B (11720279_a_at) / Fold change /veh FAM174B (11720279_a_at) / RFU TMPRSS4 (11748680_a_at) / Fold change /veh TMPRSS4 (11748680_a_at) / RFU FAM212B (11763350_a_at) / Fold change /veh FAM212B (11763350_a_at) / RFU PLEKHG5 (11743358_a_at) / Fold change /veh PLEKHG5 (11743358_a_at) / RFU ZSCAN30 (11745921_a_at) / Fold change /veh ZSCAN30 (11745921_a_at) / RFU CMKLR1 (11741424_a_at) / Fold change /veh CMKLR1 (11741424_a_at) / RFU LOC101060620 /// MAPK8IP1 (11723275_at) / Fold change /veh LOC101060620 /// MAPK8IP1 (11723275_at) / RFU SPTSSB (11747773_x_at) / Fold change /veh SPTSSB (11747773_x_at) / RFU PRSS12 (11739890_at) / Fold change /veh PRSS12 (11739890_at) / RFU BIN1 (11741810_x_at) / Fold change /veh BIN1 (11741810_x_at) / RFU WNT11 (11732464_a_at) / Fold change /veh WNT11 (11732464_a_at) / RFU C10orf10 (11716521_a_at) / Fold change /veh C10orf10 (11716521_a_at) / RFU C5orf56 (11738089_at) / Fold change /veh C5orf56 (11738089_at) / RFU CYB561 (11721691_x_at) / Fold change /veh CYB561 (11721691_x_at) / RFU ANKRD19P (11752326_a_at) / Fold change /veh ANKRD19P (11752326_a_at) / RFU OR2T12 /// OR2T33 /// OR2T8 (11738714_s_at) / Fold change /veh OR2T12 /// OR2T33 /// OR2T8 (11738714_s_at) / RFU VCAN (11748164_a_at) / Fold change /veh VCAN (11748164_a_at) / RFU JSRP1 (11732532_at) / Fold change /veh JSRP1 (11732532_at) / RFU KRTAP10-11 (11738290_x_at) / Fold change /veh KRTAP10-11 (11738290_x_at) / RFU MYO3A (11730013_a_at) / Fold change /veh MYO3A (11730013_a_at) / RFU EBF3 (11725865_a_at) / Fold change /veh EBF3 (11725865_a_at) / RFU CAMK2N1 (11719241_x_at) / Fold change /veh CAMK2N1 (11719241_x_at) / RFU C5orf56 (11738088_a_at) / Fold change /veh C5orf56 (11738088_a_at) / RFU OLFML3 (11715873_a_at) / Fold change /veh OLFML3 (11715873_a_at) / RFU LOC100653217 /// NTM (11731650_a_at) / Fold change /veh LOC100653217 /// NTM (11731650_a_at) / RFU MAPK11 (11762145_a_at) / Fold change /veh MAPK11 (11762145_a_at) / RFU FIZ1 (11724087_x_at) / Fold change /veh FIZ1 (11724087_x_at) / RFU OASL (11726364_x_at) / Fold change /veh OASL (11726364_x_at) / RFU SOX15 (11748057_x_at) / Fold change /veh SOX15 (11748057_x_at) / RFU CD79A (11719716_a_at) / Fold change /veh CD79A (11719716_a_at) / RFU HIST1H1D (11736915_at) / Fold change /veh HIST1H1D (11736915_at) / RFU CASKIN2 (11723855_a_at) / Fold change /veh CASKIN2 (11723855_a_at) / RFU LOC730098 (11760151_x_at) / Fold change /veh LOC730098 (11760151_x_at) / RFU OR4N2 (11742367_at) / Fold change /veh OR4N2 (11742367_at) / RFU PRRT2 (11749266_a_at) / Fold change /veh PRRT2 (11749266_a_at) / RFU SNX32 (11753110_a_at) / Fold change /veh SNX32 (11753110_a_at) / RFU CDHR5 (11726645_a_at) / Fold change /veh CDHR5 (11726645_a_at) / RFU RCAN1 (11760418_a_at) / Fold change /veh RCAN1 (11760418_a_at) / RFU FAM167A (11723789_a_at) / Fold change /veh FAM167A (11723789_a_at) / RFU FAM26E (11764081_at) / Fold change /veh FAM26E (11764081_at) / RFU ISYNA1 (11749810_s_at) / Fold change /veh ISYNA1 (11749810_s_at) / RFU ACY1 (11761880_at) / Fold change /veh ACY1 (11761880_at) / RFU 11764098_at / Fold change /veh 11764098_at / RFU SAMD14 (11745864_x_at) / Fold change /veh SAMD14 (11745864_x_at) / RFU NPB (11741838_a_at) / Fold change /veh NPB (11741838_a_at) / RFU TMPRSS6 (11731388_a_at) / Fold change /veh TMPRSS6 (11731388_a_at) / RFU KRTAP10-2 (11738614_at) / Fold change /veh KRTAP10-2 (11738614_at) / RFU ARHGAP8 /// PRR5-ARHGAP8 (11727945_x_at) / Fold change /veh ARHGAP8 /// PRR5-ARHGAP8 (11727945_x_at) / RFU KRTAP5-7 /// NADSYN1 (11734609_at) / Fold change /veh KRTAP5-7 /// NADSYN1 (11734609_at) / RFU RASL12 (11751679_a_at) / Fold change /veh RASL12 (11751679_a_at) / RFU CDKN2B (11736163_a_at) / Fold change /veh CDKN2B (11736163_a_at) / RFU PRF1 (11729649_at) / Fold change /veh PRF1 (11729649_at) / RFU, ZNF638 /// ZNF638-IT1 / Fold change vs veh, ZNF638 /// ZNF638-IT1 / RFU, PANK3 / Fold change vs veh, PANK3 / RFU, SH3YL1 / Fold change vs veh, SH3YL1 / RFU, ZEB2 / Fold change vs veh, ZEB2 / RFU, NRIP1 / Fold change vs veh, NRIP1 / RFU, PTTG1IP / Fold change vs veh, PTTG1IP / RFU, CAPN2 / Fold change vs veh, CAPN2 / RFU, MED14 / Fold change vs veh, MED14 / RFU, SNORA58 / Fold change vs veh, SNORA58 / RFU, C1orf63 / Fold change vs veh, C1orf63 / RFU, LRRFIP1 / Fold change vs veh, LRRFIP1 / RFU, NDUFAF7 / Fold change vs veh, NDUFAF7 / RFU, SLC12A2 / Fold change vs veh, SLC12A2 / RFU, IBTK / Fold change vs veh, IBTK / RFU, ESF1 / Fold change vs veh, ESF1 / Fold change vs veh, TMEM50B / RFU, TAOK1 / Fold change vs veh, TAOK1 / RFU, ACBD3 / Fold change vs veh, ACBD3 / RFU, TMA16 / Fold change vs veh, TMA16 / RFU, RWDD3 / Fold change vs veh, RWDD3 / RFU, BCAT1 / Fold change vs veh, BCAT1 / RFU, EDEM3 / Fold change vs veh, EDEM3 / RFU, TMEM33 / Fold change vs veh, TMEM33 / RFU, WDR75 / Fold change vs veh, WDR75 / RFU, AHCTF1 / Fold change vs veh, AHCTF1 / RFU, TFRC / Fold change vs veh, TFRC / RFU, ZDHHC17 / Fold change vs veh, ZDHHC17 / RFU, NOM1 / Fold change vs veh, NOM1 / RFU, ARL8B / Fold change vs veh, ARL8B / RFU, ZBTB11 / Fold change vs veh, ZBTB11 / RFU, TAMM41 / Fold change vs veh, TAMM41 / RFU, KIAA1704 /// LOC100996395 / Fold change vs veh, KIAA1704 /// LOC100996395 / RFU, ING1 / Fold change vs veh, ING1 / RFU, TRMT61B / Fold change vs veh, TRMT61B / RFU, FUBP3 / Fold change vs veh, FUBP3 / RFU, TP53 / Fold change vs veh, TP53 / RFU, TNKS2 / Fold change vs veh, TNKS2 / RFU, ZFP14 / Fold change vs veh, ZFP14 / RFU, ACTR2 / Fold change vs veh, ACTR2 / RFU, PPP3R1 / Fold change vs veh, PPP3R1 / RFU, PIK3R1 / Fold change vs veh, PIK3R1 / RFU, HNRNPA1 / Fold change vs veh, HNRNPA1 / RFU, RNF170 / Fold change vs veh, RNF170 / RFU, ZNF28 / Fold change vs veh, ZNF28 / RFU, RNGTT / Fold change vs veh, RNGTT / RFU, OGT / Fold change vs veh, OGT / RFU, BRD1 / Fold change vs veh, BRD1 / RFU, MARS / Fold change vs veh, MARS / RFU, ZNF655 / Fold change vs veh, ZNF655 / RFU, FAHD1 / Fold change vs veh, FAHD1 / RFU, BDP1 / Fold change vs veh, BDP1 / RFU, LRRCC1 / Fold change vs veh, LRRCC1 / RFU, ARID1A / Fold change vs veh, ARID1A / RFU, ZNF146 / Fold change vs veh, ZNF146 / RFU, ZNF330 / Fold change vs veh, ZNF330 / RFU, GPN3 / Fold change vs veh, GPN3 / RFU, C9orf123 / Fold change vs veh, C9orf123 / RFU, N4BP2L2 / Fold change vs veh, N4BP2L2 / RFU, ARFIP1 / Fold change vs veh, ARFIP1 / RFU, FAM179B / Fold change vs veh, FAM179B / RFU, BCL10 / Fold change vs veh, BCL10 / RFU, UHRF1BP1L / Fold change vs veh, UHRF1BP1L / RFU, BET1 / Fold change vs veh, BET1 / RFU, CNOT2 / Fold change vs veh, CNOT2 / RFU, ZNF268 / Fold change vs veh, ZNF268 / Fold change vs veh, ZNF507 / RFU, DGCR2 / Fold change vs veh, DGCR2 / RFU, WDSUB1 / Fold change vs veh, WDSUB1 / Fold change vs veh, HSP90B1 /// MIR3652 / RFU, ADSS / Fold change vs veh, ADSS / RFU, GK / Fold change vs veh, GK / RFU, ZNF148 / Fold change vs veh, ZNF148 / RFU, TAF9 / Fold change vs veh, TAF9 / RFU, SLC1A5 / Fold change vs veh, SLC1A5 / RFU, SLMO2 / Fold change vs veh, SLMO2 / RFU, ABCC4 / Fold change vs veh, ABCC4 / RFU, LOC101060439 /// RAP1B / Fold change vs veh, LOC101060439 /// RAP1B / RFU, RFX7 / Fold change vs veh, RFX7 / RFU, GTPBP10 / Fold change vs veh, GTPBP10 / RFU, CNEP1R1 / Fold change vs veh, CNEP1R1 / RFU, BIVM-ERCC5 /// ERCC5 / Fold change vs veh, BIVM-ERCC5 /// ERCC5 / RFU, ILF3 / Fold change vs veh, ILF3 / RFU 11762660_at / Fold change /veh 11762660_at / RFU VCAN (11757783_s_at) / Fold change /veh VCAN (11757783_s_at) / RFU DDX43 (11728927_at) / Fold change /veh DDX43 (11728927_at) / RFU KRT8 (11758188_x_at) / Fold change /veh KRT8 (11758188_x_at) / RFU NKD1 (11759106_at) / Fold change /veh NKD1 (11759106_at) / RFU SRD5A1 (11742802_a_at) / Fold change /veh SRD5A1 (11742802_a_at) / RFU TPSAB1 /// TPSB2 (11721975_s_at) / Fold change /veh TPSAB1 /// TPSB2 (11721975_s_at) / RFU GSTM3 (11746129_a_at) / Fold change /veh GSTM3 (11746129_a_at) / RFU IL23R (11737362_x_at) / Fold change /veh IL23R (11737362_x_at) / RFU TMEM51 (11727254_a_at) / Fold change /veh TMEM51 (11727254_a_at) / RFU PIWIL2 (11732686_x_at) / Fold change /veh PIWIL2 (11732686_x_at) / RFU ORM1 (11744905_x_at) / Fold change /veh ORM1 (11744905_x_at) / RFU CCDC152 (11743942_at) / Fold change /veh CCDC152 (11743942_at) / RFU ECM1 (11717891_a_at) / Fold change /veh ECM1 (11717891_a_at) / RFU IL23R (11748794_a_at) / Fold change /veh IL23R (11748794_a_at) / RFU TNFAIP8L3 (11732012_x_at) / Fold change /veh TNFAIP8L3 (11732012_x_at) / RFU MBOAT4 (11741988_at) / Fold change /veh MBOAT4 (11741988_at) / RFU 11764193_at / Fold change /veh 11764193_at / RFU TMEM53 (11763286_at) / Fold change /veh TMEM53 (11763286_at) / RFU MAGEB2 (11727129_at) / Fold change /veh MAGEB2 (11727129_at) / RFU TMEM200A (11744735_a_at) / Fold change /veh TMEM200A (11744735_a_at) / RFU CCDC152 (11751479_a_at) / Fold change /veh CCDC152 (11751479_a_at) / RFU FAM211A (11726209_a_at) / Fold change /veh FAM211A (11726209_a_at) / RFU RGS16 (11746705_a_at) / Fold change /veh RGS16 (11746705_a_at) / RFU VCAN (11755009_s_at) / Fold change /veh VCAN (11755009_s_at) / RFU RHOB (11743442_s_at) / Fold change /veh RHOB (11743442_s_at) / RFU RGS16 (11720943_a_at) / Fold change /veh RGS16 (11720943_a_at) / RFU RGS16 (11720944_at) / Fold change /veh RGS16 (11720944_at) / RFU, VPS4B / Fold change vs veh, VPS4B / RFU, CREB1 / Fold change vs veh, CREB1 / RFU, DNAJC13 / Fold change vs veh, DNAJC13 / RFU, GNAQ / Fold change vs veh, GNAQ / RFU, CDK5R1 / Fold change vs veh, CDK5R1 / RFU, ZRANB3 / Fold change vs veh, ZRANB3 / RFU, CUL4A / Fold change vs veh, CUL4A / RFU, CCNY / Fold change vs veh, CCNY / RFU, UFL1 / Fold change vs veh, UFL1 / RFU, COG3 / Fold change vs veh, COG3 / RFU, DIAPH2 / Fold change vs veh, DIAPH2 / RFU, SKA2 / Fold change vs veh, SKA2 / RFU, AFF3 / Fold change vs veh, AFF3 / RFU, LMF1 / Fold change vs veh, LMF1 / RFU, IPO11 / Fold change vs veh, IPO11 / RFU, DFFB / Fold change vs veh, DFFB / RFU, FOXP1 / Fold change vs veh, FOXP1 / RFU, CARD8 / Fold change vs veh, CARD8 / RFU, STRN3 / Fold change vs veh, STRN3 / RFU, ADK / Fold change vs veh, ADK / RFU, RASSF2 / Fold change vs veh, RASSF2 / RFU, WIPF1 / Fold change vs veh, WIPF1 / RFU, LARP1B / Fold change vs veh, LARP1B / RFU, RASA1 / Fold change vs veh, RASA1 / RFU, RB1 / Fold change vs veh, RB1 / RFU, PPFIA1 / Fold change vs veh, PPFIA1 / RFU, MAT2A / Fold change vs veh, MAT2A / RFU, CCT5 / Fold change vs veh, CCT5 / RFU, WDR92 / Fold change vs veh, WDR92 / RFU, CUX1 / Fold change vs veh, CUX1 / RFU, TTC7A / Fold change vs veh, TTC7A / RFU, TMEM135 / Fold change vs veh, TMEM135 / RFU, DEPTOR / Fold change vs veh, DEPTOR / RFU, CPM / Fold change vs veh, CPM / RFU, DNAJB6 / Fold change vs veh, DNAJB6 / RFU, CACNA2D3 / Fold change vs veh, CACNA2D3 / RFU, DTX4 / Fold change vs veh, DTX4 / RFU, TFCP2 / Fold change vs veh, TFCP2 / RFU, GMCL1 /// GMCL1P1 / Fold change vs veh, GMCL1 /// GMCL1P1 / RFU, AEBP2 / Fold change vs veh, AEBP2 / RFU, SNHG1 /// SNORD22 /// SNORD25 /// SNORD26 /// SNORD27 /// SNORD28 /// SNORD29 /// SNORD31 / Fold change vs veh, SNHG1 /// SNORD22 /// SNORD25 /// SNORD26 /// SNORD27 /// SNORD28 /// SNORD29 /// SNORD31 / Fold change (Aza/veh), C12orf56 (ProbeSet 11735607_a_at) / Fold change (ACY-1035/veh), C12orf56 (ProbeSet 11735607_a_at) / Fold change (Aza/veh), FGFR1OP (ProbeSet 11751329_s_at) / Fold change (ACY-1035/veh), FGFR1OP (ProbeSet 11751329_s_at) / Fold change (Aza/veh), VPS36 (ProbeSet 11739960_a_at) / Fold change (ACY-1035/veh), VPS36 (ProbeSet 11739960_a_at) / RFU SYPL1 (11715823_x_at) / Fold change /veh SYPL1 (11715823_x_at) / RFU IGFBP7 (11715501_s_at) / Fold change /veh IGFBP7 (11715501_s_at) / RFU REEP3 (11722064_at) / Fold change /veh REEP3 (11722064_at) / RFU IGLL1 (11728026_x_at) / Fold change /veh IGLL1 (11728026_x_at): dose or concentration left out as unconfirmed
Conditions: ProbeSet 11754362_a_at; LIST D

## Nc1ccc(-c2cccs2)cc1NC(=O)c1ccc2c(c1)cc(C1CC1)n2CCN1CCOCC1 [ACY-1035]
  Fold change vs veh, TTC7A: 0.87
